Assays:
human DPP1 enzyme = human DPP1 enzyme (Homo sapiens (Human), UniProt P53634); assay: Human DPP1 enzyme IC50 assay; type: biochemical; conditions: recombinant human DPP1, H-Gly-Arg-AMC substrate 400 μM
Summary of the method: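 Fluorogenic readout (350/450 nm, every 5 min over 90 min, 37°C) of H-Gly-Arg-AMC cleavage at 400 μM final substrate. Compounds met activated DPP1 first for a 10-min 37°C pre-incubation in MES buffer pH 6.0 with DTT, 1% DMSO final. Four-parameter sigmoidal fit gave IC50.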

DPP1 in HL-60 cells = DPP1 in HL-60 cells (Homo sapiens (Human), UniProt P53634); assay: DPP1 Cell IC50 assay; type: cell-based; conditions: H-Gly-Phe-AFC substrate, 60 min pre-incubation
Summary of the method: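 HL-60 cells (5×10^5 live cells/mL in PBS) were pre-incubated with compound in 0.5% DMSO for 60 min at 37 °C, 5% CO2, with shaking, then given 500 μM H-Gly-Phe-AFC solution for 30 min. Fluorescence was read at 400/505 nm. % inhibition was taken against vehicle wells, and IC50 came from a four-parameter logistic fit.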

active mouse DPP1 enzyme = active mouse DPP1 enzyme (Mus musculus (Mouse), UniProt P97821); assay: Mouse DPP1 enzyme IC50 assay; type: biochemical; conditions: active mouse DPP1, H-Gly-Arg-AMC substrate 400 μM
Method: 25 μL of compound in Assay Buffer plus 5% DMSO was first added to 50 μL of active mouse DPP1 enzyme at a concentration of 62.5 pg/μL and allowed to pre-incubate for 10 minutes at 37° C. after which 50 μL of 1000 μM H-Gly-Arg-AMC substrate (Bachem; St. Torrance, CA) was added, giving final substrate concentration of 400 μM and a final DMSO concentration of 1%. Substrate cleavage was measured for 90 minutes at 37° C., with fluorescence at Excitation/Emission 350/450 nm measured every 5 minutes. DPP1 concentration was interpolated based on its activity relative to a standard curve of recombinant active mouse DPP1 enzyme. IC50 values for each compound were calculated via the XLFit (IDBS Version 5.3.1.3) Add-On to Microsoft Excel using the four parameter fit equation y=(A+((B-A)/(1+((C/x)^D)))), which appears as equation number 205 (4 Parameter Logistic Model or Sigmoidal Dose-Response Model) in XLFit. Default constraints were used for each Parameter.

DPP1 in HL-60 cells, sequence (P53634 25-134): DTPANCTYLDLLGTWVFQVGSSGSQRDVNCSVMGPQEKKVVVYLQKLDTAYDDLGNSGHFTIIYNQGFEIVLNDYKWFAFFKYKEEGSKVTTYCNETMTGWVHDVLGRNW
DPP1 in HL-60 cells, sequence (P53634 231-394): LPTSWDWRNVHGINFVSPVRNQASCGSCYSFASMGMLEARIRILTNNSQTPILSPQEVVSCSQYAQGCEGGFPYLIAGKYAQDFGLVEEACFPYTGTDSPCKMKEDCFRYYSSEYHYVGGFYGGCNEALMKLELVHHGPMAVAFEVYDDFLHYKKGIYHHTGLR
DPP1 in HL-60 cells, sequence (P53634 395-463): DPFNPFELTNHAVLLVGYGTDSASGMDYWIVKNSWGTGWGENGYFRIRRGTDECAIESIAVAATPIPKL
human DPP1 enzyme, sequence (P53634 25-134): as the sequence (P53634 25-134) above
human DPP1 enzyme, sequence (P53634 231-394): as the sequence (P53634 231-394) above
human DPP1 enzyme, sequence (P53634 395-463): as the sequence (P53634 395-463) above
active mouse DPP1 enzyme, sequence (P97821 25-134): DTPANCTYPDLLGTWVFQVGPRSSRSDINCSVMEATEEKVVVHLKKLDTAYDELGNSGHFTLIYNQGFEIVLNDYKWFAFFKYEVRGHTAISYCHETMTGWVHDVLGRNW
active mouse DPP1 enzyme, sequence (P97821 231-393): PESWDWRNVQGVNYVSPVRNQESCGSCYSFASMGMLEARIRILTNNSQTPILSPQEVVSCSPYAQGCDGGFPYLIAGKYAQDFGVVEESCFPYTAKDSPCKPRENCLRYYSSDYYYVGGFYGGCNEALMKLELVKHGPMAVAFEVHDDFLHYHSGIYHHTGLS
active mouse DPP1 enzyme, sequence (P97821 394-462): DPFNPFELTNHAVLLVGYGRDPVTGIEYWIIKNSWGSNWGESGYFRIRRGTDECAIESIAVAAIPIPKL

## CN(C)C[C@H](O)C(=O)N[C@H](C#N)Cc1ccc(-c2ccc3oc(=O)n(C)c3c2)cc1 [Compound 101, (2S)—N-[(1S)-1-cyano-2-[4-(3-methyl-2-oxo-1,3-benzoxazol-5-yl)phenyl]ethyl]-3-(dimethylamino)-2-hydroxypropanamide]
Human DPP1 enzyme
  IC50: ≥ 15 nM
DPP1 in HL-60 cells
  IC50: 1 to 2.5 nM
Active mouse DPP1 enzyme
  IC50: 5 to 20 nM

## CN(C)C[C@H](O)C(=O)N[C@H](C#N)Cc1ccc(-c2ccc3c(c2)C2(CN(C)C2)OC3=O)cc1 [Compound 137, (S)—N—((S)-1-cyano-2-(4-(1-methyl-3′-oxo-3′H-spiro[azetidine-3,1′-isobenzofuran]-6′-yl)phenyl)ethyl)-3-(dimethylamino)-2-hydroxypropanamide]
Human DPP1 enzyme
  IC50: ≥ 15 nM
DPP1 in HL-60 cells
  IC50: ≥ 2.5 nM
Active mouse DPP1 enzyme
  IC50: ≤ 5 nM

## CN(C)C[C@H](O)C(=O)N[C@H](C#N)Cc1ccc(-c2ccc3oc(=O)n(C)c3c2)cc1F [Compound 138, (2S)—N-[(1S)-1-cyano-2-[2-fluoro-4-(3-methyl-2-oxo-1,3-benzoxazol-5-yl)phenyl]ethyl]-3-(dimethylamino)-2-hydroxypropanamide]
Human DPP1 enzyme
  IC50: 5 to 15 nM
DPP1 in HL-60 cells
  IC50: ≤ 1 nM
Active mouse DPP1 enzyme
  IC50: 5 to 20 nM

## CN(C)C[C@H](O)C(=O)N[C@H](C#N)Cc1ccc(-c2ccc3oc(=O)n(CCN4CCOCC4)c3c2)cc1 [Compound 140, (2S)—N-[(1S)-1-cyano-2-(4-{3-[2-(morpholin-4-yl)ethyl]-2-oxo-1,3-benzoxazol-5-yl}phenyl)ethyl]-3-(dimethylamino)-2-hydroxypropanamide]
Human DPP1 enzyme
  IC50: ≥ 15 nM
DPP1 in HL-60 cells
  IC50: ≥ 2.5 nM
Active mouse DPP1 enzyme
  IC50: 5 to 20 nM

## Cn1c(=O)oc2ccc(-c3ccc(C[C@@H](C#N)NC(=O)CCC(N)=O)cc3)cc21 [Compound 153]
Human DPP1 enzyme
  IC50: ≥ 15 nM
Active mouse DPP1 enzyme
  IC50: ≥ 20 nM

## CN[C@@H](C)C(=O)N[C@H](C#N)Cc1ccc(-c2ccc3oc(=O)n(C)c3c2)cc1 [Compound 154]
Human DPP1 enzyme
  IC50: ≥ 15 nM
Active mouse DPP1 enzyme
  IC50: ≥ 20 nM

## Cn1c(=O)oc2ccc(-c3ccc(C[C@@H](C#N)NC(=O)C(C)(C)CN)cc3)cc21 [Compound 155]
Human DPP1 enzyme
  IC50: ≥ 15 nM
Active mouse DPP1 enzyme
  IC50: ≥ 20 nM

## CNCCC(=O)N[C@H](C#N)Cc1ccc(-c2ccc3oc(=O)n(C)c3c2)cc1 [Compound 156]
Human DPP1 enzyme
  IC50: ≥ 15 nM
Active mouse DPP1 enzyme
  IC50: ≥ 20 nM

## Cn1c(=O)oc2ccc(-c3ccc(C[C@@H](C#N)NC(=O)CCN)cc3)cc21 [Compound 157]
Human DPP1 enzyme
  IC50: ≥ 15 nM
Active mouse DPP1 enzyme
  IC50: ≥ 20 nM

## CN(C)CC(=O)N[C@H](C#N)Cc1ccc(-c2ccc3oc(=O)n(C)c3c2)cc1 [Compound 158]
Human DPP1 enzyme
  IC50: ≥ 15 nM
Active mouse DPP1 enzyme
  IC50: ≥ 20 nM

## Cn1c(=O)oc2ccc(-c3ccc(C[C@@H](C#N)NC(=O)CC(N)C(N)=O)cc3)cc21 (stereo partly drawn) [Compound 159]
Human DPP1 enzyme
  IC50: ≥ 15 nM
Active mouse DPP1 enzyme
  IC50: ≥ 20 nM

## CC(N)CC(=O)N[C@H](C#N)Cc1ccc(-c2ccc3oc(=O)n(C)c3c2)cc1 (stereo partly drawn) [Compound 160]
Human DPP1 enzyme
  IC50: ≥ 15 nM
Active mouse DPP1 enzyme
  IC50: ≥ 20 nM

## CC(CN)C(=O)N[C@H](C#N)Cc1ccc(-c2ccc3oc(=O)n(C)c3c2)cc1 (stereo partly drawn) [Compound 161]
Human DPP1 enzyme
  IC50: ≥ 15 nM
Active mouse DPP1 enzyme
  IC50: ≥ 20 nM

## CCC(N)CC(=O)N[C@H](C#N)Cc1ccc(-c2ccc3oc(=O)n(C)c3c2)cc1 (stereo partly drawn) [Compound 162]
Human DPP1 enzyme
  IC50: ≥ 15 nM
Active mouse DPP1 enzyme
  IC50: ≥ 20 nM

## C=CC[C@H](N)CC(=O)N[C@H](C#N)Cc1ccc(-c2ccc3oc(=O)n(C)c3c2)cc1 [Compound 163]
Human DPP1 enzyme
  IC50: ≥ 15 nM
Active mouse DPP1 enzyme
  IC50: ≥ 20 nM

## CC(C)C(N)CC(=O)N[C@H](C#N)Cc1ccc(-c2ccc3oc(=O)n(C)c3c2)cc1 (stereo partly drawn) [Compound 164, 3-amino-N-[(1S)-1-cyano-2-[4-(3-methyl-2-oxo-2,3-dihydro-1,3-benzoxazol-5-yl)phenyl]ethyl]-4-methylpentanamide]
Human DPP1 enzyme
  IC50: ≥ 15 nM
DPP1 in HL-60 cells
  IC50: ≥ 2.5 nM
Active mouse DPP1 enzyme
  IC50: ≥ 20 nM

## C=CC[C@@H](N)CC(=O)N[C@H](C#N)Cc1ccc(-c2ccc3oc(=O)n(C)c3c2)cc1 [Compound 165, (3R)-3-amino-N-[(1S)-1-cyano-2-[4-(3-methyl-2-oxo-2,3-dihydro-1,3-benzoxazol-5-yl)phenyl]ethyl]hex-5-enamide]
Human DPP1 enzyme
  IC50: ≥ 15 nM
DPP1 in HL-60 cells
  IC50: ≥ 2.5 nM
Active mouse DPP1 enzyme
  IC50: ≥ 20 nM

## Cn1c(=O)oc2ccc(-c3ccc(C[C@@H](C#N)NC(=O)CC(N)C(F)F)cc3)cc21 (stereo partly drawn) [Compound 166]
Human DPP1 enzyme
  IC50: ≥ 15 nM
Active mouse DPP1 enzyme
  IC50: ≥ 20 nM

## C=CCC(CN)C(=O)N[C@H](C#N)Cc1ccc(-c2ccc3oc(=O)n(C)c3c2)cc1 (stereo partly drawn) [Compound 167, 2-(aminomethyl)-N-[(1S)-1-cyano-2-[4-(3-methyl-2-oxo-2,3-dihydro-1,3-benzoxazol-5-yl)phenyl]ethyl]pent-4-enamide]
Human DPP1 enzyme
  IC50: ≥ 15 nM
DPP1 in HL-60 cells
  IC50: ≥ 2.5 nM
Active mouse DPP1 enzyme
  IC50: ≥ 20 nM

## C[C@H](O)[C@@](C)(N)C(=O)N[C@H](C#N)Cc1ccc(-c2ccc3oc(=O)n(C)c3c2)cc1 [Compound 171D, (2R,3S)-2-amino-N-[(1S)-1-cyano-2-[4-(3-methyl-2-oxo-1,3-benzoxazol-5-yl)phenyl]ethyl]-3-hydroxy-2-methylbutanamide]
Human DPP1 enzyme
  IC50: 5 to 15 nM
DPP1 in HL-60 cells
  IC50: ≥ 2.5 nM
Active mouse DPP1 enzyme
  IC50: 5 to 20 nM

## Cn1c(=O)oc2ccc(-c3ccc(C[C@@H](C#N)NC(=O)C[C@@H](N)Cc4cccs4)cc3)cc21 [Compound 181]
Human DPP1 enzyme
  IC50: ≥ 15 nM
Active mouse DPP1 enzyme
  IC50: ≥ 20 nM

## Cn1c(=O)oc2ccc(-c3ccc(C[C@@H](C#N)NC(=O)C[C@H](N)Cc4cccs4)cc3)cc21 [Compound 182, (3S)-3-amino-N-[(1S)-1-cyano-2-[4-(3-methyl-2-oxo-2,3-dihydro-1,3-benzoxazol-5-yl)phenyl]ethyl]-4-(thiophen-2-yl)butanamide]
Human DPP1 enzyme
  IC50: ≥ 15 nM
DPP1 in HL-60 cells
  IC50: ≥ 2.5 nM
Active mouse DPP1 enzyme
  IC50: ≥ 20 nM

## Cn1c(=O)oc2ccc(-c3ccc(C[C@@H](C#N)NC(=O)CC(N)CCc4ccccc4)cc3)cc21 (stereo partly drawn) [Compound 183]
Human DPP1 enzyme
  IC50: ≥ 15 nM
Active mouse DPP1 enzyme
  IC50: ≥ 20 nM

## Cn1c(=O)oc2ccc(-c3ccc(C[C@@H](C#N)NC(=O)CC(N)Cc4ccccc4)cc3)cc21 (stereo partly drawn) [Compound 184, 3-amino-N-[(1S)-1-cyano-2-[4-(3-methyl-2-oxo-2,3-dihydro-1,3-benzoxazol-5-yl)phenyl]ethyl]-4-phenylbutanamide]
Human DPP1 enzyme
  IC50: ≥ 15 nM
Active mouse DPP1 enzyme
  IC50: ≥ 20 nM

## Cn1c(=O)oc2ccc(-c3ccc(C[C@@H](C#N)NC(=O)CC(N)Cc4ccsc4)cc3)cc21 (stereo partly drawn) [Compound 185]
Human DPP1 enzyme
  IC50: ≥ 15 nM
Active mouse DPP1 enzyme
  IC50: ≥ 20 nM

## Cn1c(=O)oc2ccc(-c3ccc(C[C@@H](C#N)NC(=O)C[C@@H](N)Cc4ccccc4)cc3)cc21 [Compound 186]
Human DPP1 enzyme
  IC50: ≥ 15 nM
Active mouse DPP1 enzyme
  IC50: ≥ 20 nM

## Cn1c(=O)oc2ccc(-c3ccc(C[C@@H](C#N)NC(=O)C[C@H](N)Cc4ccccc4)cc3)cc21 [Compound 187]
Human DPP1 enzyme
  IC50: ≥ 15 nM
Active mouse DPP1 enzyme
  IC50: ≥ 20 nM

## Cn1c(=O)oc2ccc(-c3ccc(C[C@@H](C#N)NC(=O)CCNC(=O)c4cccs4)cc3)cc21 [Compound 238, N-[(1S)-1-cyano-2-[4-(3-methyl-2-oxo-1,3-benzoxazol-5-yl)phenyl]ethyl]-3-(thiophen-2-ylformamido)propanamide]
Human DPP1 enzyme
  IC50: ≥ 15 nM
Active mouse DPP1 enzyme
  IC50: ≥ 20 nM

## Cn1c(=O)oc2ccc(-c3ccc(C[C@@H](C#N)NC(=O)CNC(=O)c4ccco4)cc3)cc21 [Compound 240, N-[(1S)-1-cyano-2-[4-(3-methyl-2-oxo-1,3-benzoxazol-5-yl)phenyl]ethyl]-2-(furan-2-ylformamido)acetamide]
Human DPP1 enzyme
  IC50: ≥ 15 nM
Active mouse DPP1 enzyme
  IC50: ≥ 20 nM

## Cn1c(=O)oc2ccc(-c3ccc(C[C@@H](C#N)NC(=O)CCC#N)cc3)cc21 [Compound 241]
Human DPP1 enzyme
  IC50: ≥ 15 nM
Active mouse DPP1 enzyme
  IC50: ≥ 20 nM

## CC(O)C(=O)N[C@H](C#N)Cc1ccc(-c2ccc3oc(=O)n(C)c3c2)cc1 (stereo partly drawn) [Compound 242]
Human DPP1 enzyme
  IC50: ≥ 15 nM
Active mouse DPP1 enzyme
  IC50: ≥ 20 nM

## Cn1c(=O)oc2ccc(-c3ccc(C[C@@H](C#N)NC(=O)COC(=O)c4ccco4)cc3)cc21 [Compound 243, {[(1S)-1-cyano-2-[4-(3-methyl-2-oxo-1,3-benzoxazol-5-yl)phenyl]ethyl]carbamoyl}methyl furan-2-carboxylate]
Human DPP1 enzyme
  IC50: ≥ 15 nM
Active mouse DPP1 enzyme
  IC50: ≥ 20 nM

## N#Cc1ccc(-c2ccc(C[C@@H](C#N)NC(=O)C3(N)CCOCC3)c(I)c2)cc1 [Compound 248, 4-amino-N-[(1S)-1-cyano-2-{4′-cyano-3-iodo-[1,1′-biphenyl]-4-yl}ethyl]oxane-4-carboxamide]
Human DPP1 enzyme
  IC50: ≥ 15 nM
DPP1 in HL-60 cells
  IC50: ≥ 2.5 nM
Active mouse DPP1 enzyme
  IC50: ≥ 20 nM

## CC(O)CNCC(=O)N[C@@H](C#N)Cc1ccc(-c2ccc3oc(=O)n(C)c3c2)cc1 (stereo partly drawn) [compound 175]
Human DPP1 enzyme
  IC50: ≥ 15 nM
Active mouse DPP1 enzyme
  IC50: 5 to 20 nM

— patent US20260008758A1, “LINEAR DIPEPTIDYL PEPTIDASE 1 INHIBITORS AND USES THEREOF” (Insmed Incorporated, priority 2024, published 2026)
